Reference: US11684607B2, “Secnidazole for use in the treatment of bacterial vaginosis” (priority 2014, dated 2023)

Tested on: bacterial vaginosis
Test: Telephone diary questionnaire on vaginal discharge and odor (five point scale), mITT population
Assay type: in vivo, human
Conditions: for proportion of women reporting 3-5 for vaginal discharge / proportion of women reporting 3-5 for vaginal odor / proportion of women reporting 4-5 for vaginal discharge / proportion of women reporting 4-5 for vaginal odor: 2 g dose; for Discharge 1 point (Normal/Not an Issue): number of women / Discharge 1 point (Normal/Not an Issue): proportion of women / Discharge 2 points (Mildly Abnormal): number of women / Discharge 2 points (Mildly Abnormal): proportion of women / Discharge 3 points (Moderately Abnormal): number of women / Discharge 3 points (Moderately Abnormal): proportion of women / Discharge 4 points (Severely Abnormal): number of women / Discharge 4 points (Severely Abnormal): proportion of women / Discharge 5 points (Very Severely Abnormal): number of women / Discharge 5 points (Very Severely Abnormal): proportion of women / Odor 1 point (Normal/Not an Issue): number of women / Odor 1 point (Normal/Not an Issue): proportion of women / Odor 2 points (Mildly Abnormal): number of women / Odor 2 points (Mildly Abnormal): proportion of women / Odor 3 points (Moderately Abnormal): number of women / Odor 3 points (Moderately Abnormal): proportion of women / Odor 4 points (Severely Abnormal): number of women / Odor 4 points (Severely Abnormal): proportion of women / Odor 5 points (Very Severely Abnormal): number of women / Odor 5 points (Very Severely Abnormal): proportion of women: 2 g

## Cc1ncc([N+](=O)[O-])n1CC(C)O (stereo not shown) [SYM-1219, 1-(2-hydroxypropyl)-2-methyl-5-nitromidazole]
Day 1
  proportion of women reporting 3-5 for vaginal discharge: 59%
  proportion of women reporting 3-5 for vaginal odor: 66%
  proportion of women reporting 4-5 for vaginal discharge: 36%
  proportion of women reporting 4-5 for vaginal odor: 38%
Day 3 (~48 hours)
  proportion of women reporting 3-5 for vaginal discharge: 30%
  proportion of women reporting 3-5 for vaginal odor: 20%
  proportion of women reporting 4-5 for vaginal discharge: 11%
  proportion of women reporting 4-5 for vaginal odor: 9%
Day 7
  proportion of women reporting 3-5 for vaginal discharge: 14%
  proportion of women reporting 3-5 for vaginal odor: 9%
  proportion of women reporting 4-5 for vaginal discharge: 0%
  proportion of women reporting 4-5 for vaginal odor: 0%
Day 1
  Discharge 1 point (Normal/Not an Issue): number of women: 6
  Discharge 1 point (Normal/Not an Issue): proportion of women: 10%
  Discharge 2 points (Mildly Abnormal): number of women: 18
  Discharge 2 points (Mildly Abnormal): proportion of women: 31%
  Discharge 3 points (Moderately Abnormal): number of women: 13
  Discharge 3 points (Moderately Abnormal): proportion of women: 22%
  Discharge 4 points (Severely Abnormal): number of women: 17
  Discharge 4 points (Severely Abnormal): proportion of women: 29%
  Discharge 5 points (Very Severely Abnormal): number of women: 4
  Discharge 5 points (Very Severely Abnormal): proportion of women: 7%
  Odor 1 point (Normal/Not an Issue): number of women: 8
  Odor 1 point (Normal/Not an Issue): proportion of women: 14%
  Odor 2 points (Mildly Abnormal): number of women: 12
  Odor 2 points (Mildly Abnormal): proportion of women: 21%
  Odor 3 points (Moderately Abnormal): number of women: 16
  Odor 3 points (Moderately Abnormal): proportion of women: 28%
  Odor 4 points (Severely Abnormal): number of women: 17
  Odor 4 points (Severely Abnormal): proportion of women: 29%
  Odor 5 points (Very Severely Abnormal): number of women: 5
  Odor 5 points (Very Severely Abnormal): proportion of women: 9%
Day 2
  Discharge 1 point (Normal/Not an Issue): number of women: 9
  Discharge 1 point (Normal/Not an Issue): proportion of women: 17%
  Discharge 2 points (Mildly Abnormal): number of women: 20
  Discharge 2 points (Mildly Abnormal): proportion of women: 38%
  Discharge 3 points (Moderately Abnormal): number of women: 15
  Discharge 3 points (Moderately Abnormal): proportion of women: 29%
  Discharge 4 points (Severely Abnormal): number of women: 3
  Discharge 4 points (Severely Abnormal): proportion of women: 6%
  Discharge 5 points (Very Severely Abnormal): number of women: 5
  Discharge 5 points (Very Severely Abnormal): proportion of women: 10%
  Odor 1 point (Normal/Not an Issue): number of women: 10
  Odor 1 point (Normal/Not an Issue): proportion of women: 19%
  Odor 2 points (Mildly Abnormal): number of women: 23
  Odor 2 points (Mildly Abnormal): proportion of women: 44%
  Odor 3 points (Moderately Abnormal): number of women: 10
  Odor 3 points (Moderately Abnormal): proportion of women: 19%
  Odor 4 points (Severely Abnormal): number of women: 8
  Odor 4 points (Severely Abnormal): proportion of women: 15%
  Odor 5 points (Very Severely Abnormal): number of women: 1
  Odor 5 points (Very Severely Abnormal): proportion of women: 2%
Day 3
  Discharge 1 point (Normal/Not an Issue): number of women: 13
  Discharge 1 point (Normal/Not an Issue): proportion of women: 24%
  Discharge 2 points (Mildly Abnormal): number of women: 25
  Discharge 2 points (Mildly Abnormal): proportion of women: 46%
  Discharge 3 points (Moderately Abnormal): number of women: 10
  Discharge 3 points (Moderately Abnormal): proportion of women: 19%
  Discharge 4 points (Severely Abnormal): number of women: 3
  Discharge 4 points (Severely Abnormal): proportion of women: 6%
  Discharge 5 points (Very Severely Abnormal): number of women: 3
  Discharge 5 points (Very Severely Abnormal): proportion of women: 6%
  Odor 1 point (Normal/Not an Issue): number of women: 20
  Odor 1 point (Normal/Not an Issue): proportion of women: 37%
  Odor 2 points (Mildly Abnormal): number of women: 23
  Odor 2 points (Mildly Abnormal): proportion of women: 43%
  Odor 3 points (Moderately Abnormal): number of women: 6
  Odor 3 points (Moderately Abnormal): proportion of women: 11%
  Odor 4 points (Severely Abnormal): number of women: 4
  Odor 4 points (Severely Abnormal): proportion of women: 7%
  Odor 5 points (Very Severely Abnormal): number of women: 1
  Odor 5 points (Very Severely Abnormal): proportion of women: 2%
Day 4
  Discharge 1 point (Normal/Not an Issue): number of women: 19
  Discharge 1 point (Normal/Not an Issue): proportion of women: 35%
  Discharge 2 points (Mildly Abnormal): number of women: 22
  Discharge 2 points (Mildly Abnormal): proportion of women: 40%
  Discharge 3 points (Moderately Abnormal): number of women: 8
  Discharge 3 points (Moderately Abnormal): proportion of women: 15%
  Discharge 4 points (Severely Abnormal): number of women: 5
  Discharge 4 points (Severely Abnormal): proportion of women: 9%
  Discharge 5 points (Very Severely Abnormal): number of women: 1
  Discharge 5 points (Very Severely Abnormal): proportion of women: 2%
  Odor 1 point (Normal/Not an Issue): number of women: 27
  Odor 1 point (Normal/Not an Issue): proportion of women: 49%
  Odor 2 points (Mildly Abnormal): number of women: 18
  Odor 2 points (Mildly Abnormal): proportion of women: 33%
  Odor 3 points (Moderately Abnormal): number of women: 6
  Odor 3 points (Moderately Abnormal): proportion of women: 11%
  Odor 4 points (Severely Abnormal): number of women: 4
  Odor 4 points (Severely Abnormal): proportion of women: 7%
  Odor 5 points (Very Severely Abnormal): number of women: 0
  Odor 5 points (Very Severely Abnormal): proportion of women: 0%
Day 5
  Discharge 1 point (Normal/Not an Issue): number of women: 21
  Discharge 1 point (Normal/Not an Issue): proportion of women: 43%
  Discharge 2 points (Mildly Abnormal): number of women: 17
  Discharge 2 points (Mildly Abnormal): proportion of women: 35%
  Discharge 3 points (Moderately Abnormal): number of women: 4
  Discharge 3 points (Moderately Abnormal): proportion of women: 8%
  Discharge 4 points (Severely Abnormal): number of women: 6
  Discharge 4 points (Severely Abnormal): proportion of women: 12%
  Discharge 5 points (Very Severely Abnormal): number of women: 1
  Discharge 5 points (Very Severely Abnormal): proportion of women: 2%
  Odor 1 point (Normal/Not an Issue): number of women: 28
  Odor 1 point (Normal/Not an Issue): proportion of women: 58%
  Odor 2 points (Mildly Abnormal): number of women: 12
  Odor 2 points (Mildly Abnormal): proportion of women: 25%
  Odor 3 points (Moderately Abnormal): number of women: 5
  Odor 3 points (Moderately Abnormal): proportion of women: 10%
  Odor 4 points (Severely Abnormal): number of women: 3
  Odor 4 points (Severely Abnormal): proportion of women: 6%
  Odor 5 points (Very Severely Abnormal): number of women: 0
  Odor 5 points (Very Severely Abnormal): proportion of women: 0%
Day 6
  Discharge 1 point (Normal/Not an Issue): number of women: 22
  Discharge 1 point (Normal/Not an Issue): proportion of women: 47%
  Discharge 2 points (Mildly Abnormal): number of women: 15
  Discharge 2 points (Mildly Abnormal): proportion of women: 32%
  Discharge 3 points (Moderately Abnormal): number of women: 7
  Discharge 3 points (Moderately Abnormal): proportion of women: 15%
  Discharge 4 points (Severely Abnormal): number of women: 2
  Discharge 4 points (Severely Abnormal): proportion of women: 4%
  Discharge 5 points (Very Severely Abnormal): number of women: 1
  Discharge 5 points (Very Severely Abnormal): proportion of women: 2%
  Odor 1 point (Normal/Not an Issue): number of women: 29
  Odor 1 point (Normal/Not an Issue): proportion of women: 62%
  Odor 2 points (Mildly Abnormal): number of women: 12
  Odor 2 points (Mildly Abnormal): proportion of women: 26%
  Odor 3 points (Moderately Abnormal): number of women: 5
  Odor 3 points (Moderately Abnormal): proportion of women: 11%
  Odor 4 points (Severely Abnormal): number of women: 1
  Odor 4 points (Severely Abnormal): proportion of women: 2%
  Odor 5 points (Very Severely Abnormal): number of women: 0
  Odor 5 points (Very Severely Abnormal): proportion of women: 0%
Day 7
  Discharge 1 point (Normal/Not an Issue): number of women: 24
  Discharge 1 point (Normal/Not an Issue): proportion of women: 55%
  Discharge 2 points (Mildly Abnormal): number of women: 14
  Discharge 2 points (Mildly Abnormal): proportion of women: 32%
  Discharge 3 points (Moderately Abnormal): number of women: 6
  Discharge 3 points (Moderately Abnormal): proportion of women: 14%
  Discharge 4 points (Severely Abnormal): number of women: 0
  Discharge 4 points (Severely Abnormal): proportion of women: 0%
  Discharge 5 points (Very Severely Abnormal): number of women: 0
  Discharge 5 points (Very Severely Abnormal): proportion of women: 0%
  Odor 1 point (Normal/Not an Issue): number of women: 33
  Odor 1 point (Normal/Not an Issue): proportion of women: 75%
  Odor 2 points (Mildly Abnormal): number of women: 7
  Odor 2 points (Mildly Abnormal): proportion of women: 16%
  Odor 3 points (Moderately Abnormal): number of women: 4
  Odor 3 points (Moderately Abnormal): proportion of women: 9%
  Odor 4 points (Severely Abnormal): number of women: 0
  Odor 4 points (Severely Abnormal): proportion of women: 0%
  Odor 5 points (Very Severely Abnormal): number of women: 0
  Odor 5 points (Very Severely Abnormal): proportion of women: 0%
EOS
  Discharge 1 point (Normal/Not an Issue): number of women: 36
  Discharge 1 point (Normal/Not an Issue): proportion of women: 68%
  Discharge 2 points (Mildly Abnormal): number of women: 9
  Discharge 2 points (Mildly Abnormal): proportion of women: 17%
  Discharge 3 points (Moderately Abnormal): number of women: 4
  Discharge 3 points (Moderately Abnormal): proportion of women: 8%
  Discharge 4 points (Severely Abnormal): number of women: 3
  Discharge 4 points (Severely Abnormal): proportion of women: 6%
  Discharge 5 points (Very Severely Abnormal): number of women: 1
  Discharge 5 points (Very Severely Abnormal): proportion of women: 2%
  Odor 1 point (Normal/Not an Issue): number of women: 36
  Odor 1 point (Normal/Not an Issue): proportion of women: 69%
  Odor 2 points (Mildly Abnormal): number of women: 7
  Odor 2 points (Mildly Abnormal): proportion of women: 13%
  Odor 3 points (Moderately Abnormal): number of women: 9
  Odor 3 points (Moderately Abnormal): proportion of women: 17%
  Odor 4 points (Severely Abnormal): number of women: 0
  Odor 4 points (Severely Abnormal): proportion of women: 0%
  Odor 5 points (Very Severely Abnormal): number of women: 0
  Odor 5 points (Very Severely Abnormal): proportion of women: 0%
